Laboratory results: ChEMBL document CHEMBL1201862, “PubChem BioAssay data set” (2004)
Activity calls are given as the source filed them.

Key:
Assay type in all cases: functional
[1] = molecular target: Ribosomal protein S6 kinase alpha-3 (Homo sapiens, UniProt P51812);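 note: measured within a kinome-wide profiling panel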
[2] = molecular target: T1, cGMP-dependent protein kinase 1 (Homo sapiens, UniProt Q13976);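 note: value from a kinome panel screen with PRKG1 as the panel member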
T1 sequence (Q13976 whole entry): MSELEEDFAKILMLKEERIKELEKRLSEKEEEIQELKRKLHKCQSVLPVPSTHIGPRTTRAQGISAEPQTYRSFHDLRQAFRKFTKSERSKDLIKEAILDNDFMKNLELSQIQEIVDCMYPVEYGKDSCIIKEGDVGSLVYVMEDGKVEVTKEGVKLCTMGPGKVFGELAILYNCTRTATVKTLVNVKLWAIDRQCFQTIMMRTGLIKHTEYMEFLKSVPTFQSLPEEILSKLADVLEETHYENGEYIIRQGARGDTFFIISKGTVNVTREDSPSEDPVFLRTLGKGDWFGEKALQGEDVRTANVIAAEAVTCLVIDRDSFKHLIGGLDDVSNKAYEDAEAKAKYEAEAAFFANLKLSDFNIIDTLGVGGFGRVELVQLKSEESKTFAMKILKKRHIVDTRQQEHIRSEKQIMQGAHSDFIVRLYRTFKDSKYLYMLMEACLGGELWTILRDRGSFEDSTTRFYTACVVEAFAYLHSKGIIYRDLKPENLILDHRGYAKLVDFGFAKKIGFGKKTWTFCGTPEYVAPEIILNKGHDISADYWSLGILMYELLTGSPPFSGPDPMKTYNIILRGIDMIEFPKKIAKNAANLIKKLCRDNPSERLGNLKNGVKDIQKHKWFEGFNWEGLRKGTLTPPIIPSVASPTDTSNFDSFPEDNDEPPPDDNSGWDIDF

[3] = molecular target: T2, Serine/threonine-protein kinase D2 (Homo sapiens, UniProt Q9BZL6);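 note: measured against PRKD2 as one member of a kinome-wide kinase profiling panel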
T2 sequence (Q9BZL6 whole entry): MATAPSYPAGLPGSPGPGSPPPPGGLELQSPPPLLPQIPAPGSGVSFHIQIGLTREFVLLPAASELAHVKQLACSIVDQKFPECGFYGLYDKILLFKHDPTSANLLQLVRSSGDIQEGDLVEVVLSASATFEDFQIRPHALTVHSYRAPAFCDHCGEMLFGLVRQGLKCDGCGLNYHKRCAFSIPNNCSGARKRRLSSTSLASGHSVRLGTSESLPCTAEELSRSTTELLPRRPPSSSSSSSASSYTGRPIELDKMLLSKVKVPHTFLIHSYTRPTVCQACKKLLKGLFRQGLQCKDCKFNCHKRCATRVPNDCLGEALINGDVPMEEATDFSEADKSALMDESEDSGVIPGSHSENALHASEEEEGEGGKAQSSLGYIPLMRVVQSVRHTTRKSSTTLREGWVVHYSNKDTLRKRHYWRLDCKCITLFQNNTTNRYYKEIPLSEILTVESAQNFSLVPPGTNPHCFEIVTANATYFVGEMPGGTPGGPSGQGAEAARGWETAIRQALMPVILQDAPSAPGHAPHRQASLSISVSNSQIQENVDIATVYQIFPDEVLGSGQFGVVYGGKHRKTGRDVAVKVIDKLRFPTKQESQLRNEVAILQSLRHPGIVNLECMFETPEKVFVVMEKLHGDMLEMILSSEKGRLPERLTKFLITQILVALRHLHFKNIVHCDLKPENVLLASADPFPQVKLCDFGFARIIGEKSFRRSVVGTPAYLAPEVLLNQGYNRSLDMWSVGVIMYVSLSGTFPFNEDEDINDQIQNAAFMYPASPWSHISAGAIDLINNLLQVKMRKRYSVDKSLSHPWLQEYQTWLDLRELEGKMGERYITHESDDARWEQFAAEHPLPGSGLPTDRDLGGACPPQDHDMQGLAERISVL

[4] = molecular target: Tyrosine-protein kinase SYK (Homo sapiens, UniProt P43405)
[5] = molecular target: MAP kinase-activated protein kinase 5 (Homo sapiens, UniProt Q8IW41);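 note: measured as one member of a kinome panel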
[6] = molecular target: Testis-specific serine/threonine-protein kinase 1 (Homo sapiens, UniProt Q9BXA7)
Sequence of Testis-specific serine/threonine-protein kinase 1 (Q9BXA7 whole entry): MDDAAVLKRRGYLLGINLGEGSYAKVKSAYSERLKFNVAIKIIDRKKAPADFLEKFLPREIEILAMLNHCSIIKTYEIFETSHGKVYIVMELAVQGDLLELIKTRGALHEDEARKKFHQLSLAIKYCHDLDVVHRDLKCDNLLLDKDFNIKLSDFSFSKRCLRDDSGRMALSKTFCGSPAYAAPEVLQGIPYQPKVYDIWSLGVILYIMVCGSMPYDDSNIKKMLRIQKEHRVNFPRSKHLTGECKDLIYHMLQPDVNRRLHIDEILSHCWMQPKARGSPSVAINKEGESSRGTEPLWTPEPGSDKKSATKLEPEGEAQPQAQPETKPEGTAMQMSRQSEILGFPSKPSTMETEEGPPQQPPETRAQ

[7] = molecular target: Homeodomain-interacting protein kinase 2 (Homo sapiens, UniProt Q9H2X6);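 note: measured within a kinome-wide kinase profiling panel, HIPK2 being one panel member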
Sequence of Homeodomain-interacting protein kinase 2 (Q9H2X6 whole entry): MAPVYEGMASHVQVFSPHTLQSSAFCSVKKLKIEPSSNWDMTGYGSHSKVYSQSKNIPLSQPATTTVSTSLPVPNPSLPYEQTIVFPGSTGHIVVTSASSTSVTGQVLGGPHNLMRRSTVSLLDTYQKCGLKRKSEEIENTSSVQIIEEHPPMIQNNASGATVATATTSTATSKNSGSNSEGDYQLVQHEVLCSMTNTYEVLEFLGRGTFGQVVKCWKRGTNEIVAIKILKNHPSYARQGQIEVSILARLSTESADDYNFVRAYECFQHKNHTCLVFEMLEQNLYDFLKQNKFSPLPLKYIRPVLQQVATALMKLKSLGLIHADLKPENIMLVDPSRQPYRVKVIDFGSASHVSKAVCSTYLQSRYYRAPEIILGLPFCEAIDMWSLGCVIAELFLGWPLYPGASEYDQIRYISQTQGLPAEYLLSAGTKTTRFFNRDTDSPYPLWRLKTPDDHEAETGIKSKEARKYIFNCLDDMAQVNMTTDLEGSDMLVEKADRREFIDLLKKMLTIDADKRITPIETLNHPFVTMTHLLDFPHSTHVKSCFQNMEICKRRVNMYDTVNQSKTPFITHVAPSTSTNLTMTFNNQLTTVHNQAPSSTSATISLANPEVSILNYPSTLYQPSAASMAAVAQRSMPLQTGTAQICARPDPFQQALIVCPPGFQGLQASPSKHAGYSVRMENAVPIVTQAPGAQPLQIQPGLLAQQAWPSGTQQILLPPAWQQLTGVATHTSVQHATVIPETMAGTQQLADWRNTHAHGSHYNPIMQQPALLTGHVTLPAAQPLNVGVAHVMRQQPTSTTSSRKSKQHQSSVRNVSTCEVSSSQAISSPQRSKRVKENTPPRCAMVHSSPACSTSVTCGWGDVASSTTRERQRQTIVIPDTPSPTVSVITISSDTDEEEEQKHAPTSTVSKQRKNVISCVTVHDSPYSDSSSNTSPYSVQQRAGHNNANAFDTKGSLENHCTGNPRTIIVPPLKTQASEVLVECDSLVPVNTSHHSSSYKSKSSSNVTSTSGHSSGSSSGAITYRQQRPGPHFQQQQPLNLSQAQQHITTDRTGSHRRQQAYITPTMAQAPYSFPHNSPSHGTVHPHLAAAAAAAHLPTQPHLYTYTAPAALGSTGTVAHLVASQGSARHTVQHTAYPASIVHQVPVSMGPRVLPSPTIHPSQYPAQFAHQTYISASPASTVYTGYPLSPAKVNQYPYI

[8] = molecular target: Proto-oncogene tyrosine-protein kinase Src (Homo sapiens, UniProt P12931);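 note: SRC entry within a kinome-wide kinase profiling panel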
Ephrin type-A receptor 2 = Ephrin type-A receptor 2 (Homo sapiens, UniProt P29317);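 note: EPHA2 tested as one member of a kinome-wide kinase panel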
[9] = molecular target: Insulin-like growth factor 1 receptor (Homo sapiens, UniProt P08069); experiment: Navigating the Kinome. Panel member name: IGF1R
[10] = molecular target: T3, Dual specificity tyrosine-phosphorylation-regulated kinase 4 (Homo sapiens, UniProt Q9NR20)
T3 sequence (Q9NR20 whole entry): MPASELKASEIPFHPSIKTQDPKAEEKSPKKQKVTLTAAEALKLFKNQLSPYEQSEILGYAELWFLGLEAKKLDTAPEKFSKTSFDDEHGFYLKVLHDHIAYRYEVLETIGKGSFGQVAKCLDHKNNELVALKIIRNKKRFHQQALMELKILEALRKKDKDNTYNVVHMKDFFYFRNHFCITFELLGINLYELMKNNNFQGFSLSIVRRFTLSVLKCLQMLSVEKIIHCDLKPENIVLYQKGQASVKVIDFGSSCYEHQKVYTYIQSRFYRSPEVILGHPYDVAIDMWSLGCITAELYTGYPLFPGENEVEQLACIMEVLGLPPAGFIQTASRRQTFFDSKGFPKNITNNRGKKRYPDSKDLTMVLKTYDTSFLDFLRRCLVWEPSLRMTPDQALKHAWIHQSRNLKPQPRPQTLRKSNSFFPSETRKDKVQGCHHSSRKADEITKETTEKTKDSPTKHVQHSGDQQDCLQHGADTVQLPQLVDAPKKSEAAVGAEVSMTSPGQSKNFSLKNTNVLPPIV

[11] = molecular target: Rho-associated protein kinase 1 (Homo sapiens, UniProt Q13464);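 note: measured within a broad kinome-wide panel profiling many kinases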
Sequence of Rho-associated protein kinase 1 (Q13464 whole entry): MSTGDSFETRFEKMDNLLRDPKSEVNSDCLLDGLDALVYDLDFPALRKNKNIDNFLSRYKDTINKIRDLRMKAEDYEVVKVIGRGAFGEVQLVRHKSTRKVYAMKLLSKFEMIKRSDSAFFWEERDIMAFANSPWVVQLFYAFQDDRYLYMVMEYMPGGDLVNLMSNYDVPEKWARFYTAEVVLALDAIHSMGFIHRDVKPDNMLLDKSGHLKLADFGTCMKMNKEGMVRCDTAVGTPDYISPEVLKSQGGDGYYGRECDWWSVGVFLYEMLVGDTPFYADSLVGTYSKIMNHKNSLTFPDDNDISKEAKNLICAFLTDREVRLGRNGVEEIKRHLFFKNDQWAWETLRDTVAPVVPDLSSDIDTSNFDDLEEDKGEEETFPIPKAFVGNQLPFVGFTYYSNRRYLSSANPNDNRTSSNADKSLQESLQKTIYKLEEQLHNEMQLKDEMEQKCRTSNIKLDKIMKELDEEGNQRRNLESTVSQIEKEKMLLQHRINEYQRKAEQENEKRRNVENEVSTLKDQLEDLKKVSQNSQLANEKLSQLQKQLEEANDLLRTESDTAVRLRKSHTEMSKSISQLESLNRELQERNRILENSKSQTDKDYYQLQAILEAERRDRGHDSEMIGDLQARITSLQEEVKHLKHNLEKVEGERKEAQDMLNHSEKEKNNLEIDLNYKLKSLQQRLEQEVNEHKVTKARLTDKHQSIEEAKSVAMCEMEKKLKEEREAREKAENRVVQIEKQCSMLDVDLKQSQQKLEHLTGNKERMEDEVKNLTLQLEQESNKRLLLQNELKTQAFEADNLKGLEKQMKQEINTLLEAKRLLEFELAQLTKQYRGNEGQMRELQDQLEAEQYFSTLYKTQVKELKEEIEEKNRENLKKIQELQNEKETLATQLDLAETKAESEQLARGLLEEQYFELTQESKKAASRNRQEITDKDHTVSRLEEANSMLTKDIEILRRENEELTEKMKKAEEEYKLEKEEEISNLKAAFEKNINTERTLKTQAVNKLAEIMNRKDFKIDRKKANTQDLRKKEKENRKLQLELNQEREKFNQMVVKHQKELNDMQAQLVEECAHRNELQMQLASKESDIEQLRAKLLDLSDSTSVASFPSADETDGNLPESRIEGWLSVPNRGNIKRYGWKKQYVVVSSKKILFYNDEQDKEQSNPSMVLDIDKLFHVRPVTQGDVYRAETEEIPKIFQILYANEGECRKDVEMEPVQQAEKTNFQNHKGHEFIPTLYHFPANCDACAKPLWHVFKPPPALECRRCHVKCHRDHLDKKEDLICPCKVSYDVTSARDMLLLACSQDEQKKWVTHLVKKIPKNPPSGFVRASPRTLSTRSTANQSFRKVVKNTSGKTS

[12] = molecular target: Serine/threonine-protein kinase Nek2 (Homo sapiens, UniProt P51955)
Sequence of Serine/threonine-protein kinase Nek2 (P51955 whole entry): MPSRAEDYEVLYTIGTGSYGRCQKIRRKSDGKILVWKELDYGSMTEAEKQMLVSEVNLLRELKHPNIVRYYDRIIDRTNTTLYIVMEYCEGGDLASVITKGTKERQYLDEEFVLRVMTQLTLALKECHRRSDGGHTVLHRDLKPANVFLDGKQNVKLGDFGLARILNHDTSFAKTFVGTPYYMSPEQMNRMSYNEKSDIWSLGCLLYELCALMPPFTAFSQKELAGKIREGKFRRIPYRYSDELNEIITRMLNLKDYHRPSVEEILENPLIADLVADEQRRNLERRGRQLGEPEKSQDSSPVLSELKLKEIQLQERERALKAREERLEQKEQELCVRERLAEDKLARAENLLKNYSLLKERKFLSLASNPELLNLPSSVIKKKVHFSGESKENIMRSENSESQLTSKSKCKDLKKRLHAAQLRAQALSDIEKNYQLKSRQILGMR

[13] = molecular target: Vascular endothelial growth factor receptor 1 (Homo sapiens, UniProt P17948);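 note: measured within a kinome-wide profiling panel, FLT1 as the panel member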
[14] = molecular target: Fibroblast growth factor receptor 3 (Homo sapiens, UniProt P22607)
[15] = molecular target: Tyrosine-protein kinase FRK (Homo sapiens, UniProt P42685);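 note: FRK tested as one member of a kinome panel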
Sequence of Tyrosine-protein kinase FRK (P42685 whole entry): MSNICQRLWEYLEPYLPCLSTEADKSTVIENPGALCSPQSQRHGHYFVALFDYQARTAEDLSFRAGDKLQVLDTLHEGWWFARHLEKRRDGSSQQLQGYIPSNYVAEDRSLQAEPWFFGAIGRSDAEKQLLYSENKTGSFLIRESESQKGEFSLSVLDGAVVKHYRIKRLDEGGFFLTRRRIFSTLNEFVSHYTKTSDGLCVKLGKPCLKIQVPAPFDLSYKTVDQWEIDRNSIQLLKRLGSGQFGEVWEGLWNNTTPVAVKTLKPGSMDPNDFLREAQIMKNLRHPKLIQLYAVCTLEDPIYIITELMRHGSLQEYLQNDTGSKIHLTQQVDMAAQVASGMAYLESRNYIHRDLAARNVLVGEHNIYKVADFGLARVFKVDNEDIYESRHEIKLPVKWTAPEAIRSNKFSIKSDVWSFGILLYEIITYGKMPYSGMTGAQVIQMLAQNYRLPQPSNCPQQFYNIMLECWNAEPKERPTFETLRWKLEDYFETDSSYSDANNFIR

Sequence of Ribosomal protein S6 kinase alpha-3 (P51812 whole entry): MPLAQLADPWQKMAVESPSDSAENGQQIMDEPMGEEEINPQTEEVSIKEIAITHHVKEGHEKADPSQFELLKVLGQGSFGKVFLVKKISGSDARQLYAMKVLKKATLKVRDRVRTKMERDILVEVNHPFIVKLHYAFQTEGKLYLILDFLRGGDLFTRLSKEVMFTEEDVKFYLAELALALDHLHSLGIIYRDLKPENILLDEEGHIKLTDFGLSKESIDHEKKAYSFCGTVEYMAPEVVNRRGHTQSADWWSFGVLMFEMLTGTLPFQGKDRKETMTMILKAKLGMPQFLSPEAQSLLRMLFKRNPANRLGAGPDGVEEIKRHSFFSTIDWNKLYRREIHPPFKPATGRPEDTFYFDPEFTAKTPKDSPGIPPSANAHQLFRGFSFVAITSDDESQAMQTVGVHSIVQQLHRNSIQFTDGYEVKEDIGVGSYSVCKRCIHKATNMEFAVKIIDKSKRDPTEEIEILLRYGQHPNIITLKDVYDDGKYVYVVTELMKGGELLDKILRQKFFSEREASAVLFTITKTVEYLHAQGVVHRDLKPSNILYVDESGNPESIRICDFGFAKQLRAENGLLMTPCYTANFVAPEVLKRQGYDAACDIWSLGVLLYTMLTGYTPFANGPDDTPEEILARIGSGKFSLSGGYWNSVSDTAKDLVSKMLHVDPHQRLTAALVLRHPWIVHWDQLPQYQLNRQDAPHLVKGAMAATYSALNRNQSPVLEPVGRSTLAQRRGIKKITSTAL

Row | Ki [2] | Ki [3] | Ki [4] | Ki [5] | Ki [6] | Ki [7] | Ki [8] | Ki (Ephrin type-A receptor 2) | Ki [9] | Ki [10] | Ki [11] | Ki [12] | Ki [13] | Ki [14] | Ki [15] | SMILES | Ki [1] | other results
1 | 794 nM (active) | 316 nM (active) | > 1580 nM (inactive) | > 1580 nM (inactive) | > 1580 nM (inactive) | 25.1 nM (active) | > 2000 nM (inactive) | > 3160 nM (inactive) | > 2000 nM (inactive) | 10 nM (active) | 126 nM (active) | > 10000 nM (inactive) | > 398 nM (inactive) | > 2000 nM (inactive) | 2000 nM (active) | NC(=O)c1cc(-c2ccnc(N)n2)[nH]c1-c1ccc(Cl)cc1Cl | 50.1 nM (active) | pKi [1]: 7.3; pKi [2]: 6.1; pKi [3]: 6.5; pKi [7]: 7.6; pKi [10]: 8; pKi [11]: 6.9; pKi [15]: 5.7
2 | 1.26 nM (active) | 15.8 nM (active) | 1580 nM (active) | > 1580 nM (inactive) | 6.31 nM (active) | 39.8 nM (active) | 398 nM (active) | > 3160 nM (inactive) | > 1000 nM (inactive) | 398 nM (active) | 31.6 nM (active) | 2000 nM (active) | > 398 nM (inactive) | > 2000 nM (inactive) | 316 nM (active) | NC(COc1cncc(-c2ccc3c(c2)C(=Cc2ccco2)C(=O)N3)c1)Cc1c[nH]c2ccccc12 (centres undefined) |  | 
3 |  |  |  |  |  |  |  |  |  |  |  |  |  |  |  | Cc1ccc(-n2nc(C(C)(C)C)cc2NC(=O)Nc2ccc(OCCN3CCOCC3)c3ccccc23)cc1 [DORAMAPIMOD] | > 3980 nM (inactive) | 
